Test results published in paper PMC9939733 (The Journal of Biological Chemistry, 2023).
Positions count from the first letter of the chain named.

Columns and labels:
Format in all cases: biochemical
R140Q IDH2 [1] = molecular target: T1, R140Q IDH2 (Homo sapiens, UniProt P48735, R140Q); assay: Absorbance assay (NADPH consumption), substrate turnover in the absence of 2OG
T1 construct: made in house; host or cells: Sf21 insect cells (cell pellets prepared at Evotec)
T1 sequence (P48735 40-452 R140Q): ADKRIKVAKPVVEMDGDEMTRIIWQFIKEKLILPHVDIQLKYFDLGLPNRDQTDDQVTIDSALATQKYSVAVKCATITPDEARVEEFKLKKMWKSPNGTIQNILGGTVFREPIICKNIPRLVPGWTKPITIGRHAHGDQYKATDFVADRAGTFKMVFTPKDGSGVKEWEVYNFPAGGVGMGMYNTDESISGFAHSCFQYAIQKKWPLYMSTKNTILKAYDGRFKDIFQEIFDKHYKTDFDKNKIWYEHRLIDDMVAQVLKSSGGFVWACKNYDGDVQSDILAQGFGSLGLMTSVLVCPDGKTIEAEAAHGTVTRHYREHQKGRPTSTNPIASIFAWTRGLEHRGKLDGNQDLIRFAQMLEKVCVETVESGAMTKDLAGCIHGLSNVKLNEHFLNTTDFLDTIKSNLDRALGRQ
Experimental: (§1) Compounds were dispensed using a CyBio SDW-CW CyBi-Well Simultaneous Pipettor and assay started using a ThermoFisher Multidrop Combi reagent dispenser.
(§2) Reactions were performed as technical quadruplicates.

R172K IDH2 [2] = molecular target: T2, R172K IDH2 (Homo sapiens, UniProt P48735, R172K); assay: as above
T2 construct: made in house; host or cells: Sf21 insect cells (cell pellets prepared at Evotec)
T2 sequence (P48735 40-452 R172K): T1 sequence (P48735 40-452 R140Q) with Q101R, R133K
Experimental: as §1, §2

R140Q IDH2 [3] = molecular target: T1, R140Q IDH2; assay: Absorbance assay, variant activity in the presence of equimolar 2OG (inhibition screen)
Experimental: as §1, §2

R172K IDH2 [4] = molecular target: T2, R172K IDH2; assay: as above
Experimental: as §1, §2

WT IDH1 [5] = molecular target: T3, WT IDH1 (Homo sapiens, UniProt O75874); assay: Absorbance assay, WT activity in the presence of equimolar DL-isocitrate (inhibition)
T3 construct: made in house; host or cells: Escherichia coli BL21(DE3) pLyS
Experimental: as §1, §2

R132H IDH1 [6] = molecular target: T4, R132H IDH1 (Homo sapiens, UniProt O75874, R132H); assay: Absorbance assay (NADPH consumption), substrate turnover in the absence of 2OG; design: made in house; host or cells: Escherichia coli BL21(DE3) pLyS
Experimental: as §1, §2

R132H IDH1 [7] = molecular target: T4, R132H IDH1; assay: Absorbance assay, variant activity in the presence of equimolar 2OG (inhibition screen); design: made in house; host or cells: Escherichia coli BL21(DE3) pLyS
Experimental: as §1, §2

WT IDH2 [8] = molecular target: T5, WT IDH2 (Homo sapiens, UniProt P48735); assay: Absorbance assay, WT activity in the presence of equimolar DL-isocitrate (inhibition); conditions: […] isocitrate and […] test compound, 75 μM NADP+, 2.0 nM WT IDH2
T5 construct: made in house; host or cells: Sf21 insect cells (cell pellets prepared at Evotec)
T5 sequence (P48735 40-452): T1 sequence (P48735 40-452 R140Q) with Q101R
Experimental: as §1, §2

WT IDH1 [9] = molecular target: T3, WT IDH1; assay: Absorbance assay, substrate activity in the absence of DL-isocitrate; conditions: no DL-isocitrate; […] test compound, 75 μM NADP+, 2.0 nM WT IDH1; compared to DL-isocitrate
Experimental: as §1, §2

WT IDH2 [10] = molecular target: T5, WT IDH2; assay: as above; conditions: no DL-isocitrate; […] test compound, 75 μM NADP+, 2.0 nM WT IDH2; compared to DL-isocitrate
Experimental: as §1, §2

[11] = no 2OG, 6.0 mM test compound, 0.03 μM R140Q IDH2, 50 μM NADPH, 2OG = 100
[12] = no 2OG, 1.0 mM test compound, 0.03 μM R172K IDH2, 50 μM NADPH, 2OG = 100
[13] = 6.0 mM 2OG and 6.0 mM test compound, 0.03 μM R140Q IDH2, 50 μM NADPH
[14] = 1.0 mM 2OG and 1.0 mM test compound, 0.03 μM R172K IDH2, 50 μM NADPH
[15] = […] isocitrate and […] test compound, 75 μM NADP+, 2.0 nM WT IDH1
[16] = no 2OG, […] test compound, 0.03 μM R132H IDH1, 50 μM NADPH, 2OG = 100
[17] = […] 2OG and […] test compound, 0.03 μM R132H IDH1, 50 μM NADPH

T4 sequence (O75874 whole entry R132H): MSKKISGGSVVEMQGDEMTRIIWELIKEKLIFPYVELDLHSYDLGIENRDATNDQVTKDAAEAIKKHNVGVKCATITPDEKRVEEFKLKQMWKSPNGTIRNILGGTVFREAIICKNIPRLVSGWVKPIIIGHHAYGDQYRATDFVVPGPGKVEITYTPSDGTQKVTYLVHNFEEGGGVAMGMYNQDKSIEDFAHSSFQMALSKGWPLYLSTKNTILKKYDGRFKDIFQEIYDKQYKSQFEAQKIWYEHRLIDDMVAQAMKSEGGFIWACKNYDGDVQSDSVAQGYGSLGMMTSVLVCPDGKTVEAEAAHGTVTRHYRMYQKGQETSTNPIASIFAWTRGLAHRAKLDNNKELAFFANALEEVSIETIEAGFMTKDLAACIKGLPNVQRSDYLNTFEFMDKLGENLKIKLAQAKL
T3 sequence (O75874 whole entry): as the sequence (O75874 whole entry R132H) above, with H132R counted along it

activity [%] (%-substrate conversion after 20 min incubation) (R140Q IDH2 [1]; [11])	activity [%] (%-substrate conversion after 20 min incubation) (R172K IDH2 [2]; [12])	activity [%] (%-substrate conversion after 20 min incubation) (R140Q IDH2 [3]; [13])	activity [%] (%-substrate conversion after 20 min incubation) (R172K IDH2 [4]; [14])	activity [%] (%-substrate conversion after 20 min incubation) (WT IDH1 [5]; [15])	activity [%] (%-substrate conversion after 20 min incubation) (R132H IDH1 [6]; [16])	activity [%] (%-substrate conversion after 20 min incubation) (R132H IDH1 [7]; [17])	activity [%] (%-substrate conversion after 20 min incubation) (WT IDH2 [8])	activity [%] (%-substrate conversion after 20 min incubation) (WT IDH1 [9])	activity [%] (%-substrate conversion after 20 min incubation) (WT IDH2 [10])	SMILES	activity [%] (%-substrate conversion after 20 min incubation) (R140Q IDH2 [1])	activity [%] (%-substrate conversion after 20 min incubation) (R172K IDH2 [2])	activity [%] (%-substrate conversion after 20 min incubation) (R140Q IDH2 [3])	activity [%] (%-substrate conversion after 20 min incubation) (R172K IDH2 [4])	activity [%] (%-substrate conversion after 20 min incubation) (R132H IDH1 [6])	activity [%] (%-substrate conversion after 20 min incubation) (R132H IDH1 [7])	activity [%] (%-substrate conversion after 20 min incubation) (WT IDH1 [5])
< 10%	< 10%	94 ± 9%	93 ± 5%	94 ± 7%	< 10%	83 ± 5%	–	–	–	NC(CCC(=O)O)C(=O)O (racemic) [DL-glutamic acid]	–	–	–	–	–	–	–
< 10%	< 10%	112 ± 7%	101 ± 2%	106 ± 2%	< 10%	104 ± 4%	–	–	–	O=C[C@H](O)[C@@H](O)[C@H](O)[C@H](O)C(=O)O [D-glucuronic acid]	–	–	–	–	–	–	–
–	–	394 ± 40%	110 ± 4%	96±1%	–	132 ± 3%	95±2%	< 10%	< 10%	O=C(O)C(=O)C1CC1C(=O)O (mixture of isomers) [compound 21]	–	–	–	–	–	–	–
–	< 10%	–	87 ± 10%	88 ± 2%	< 10%	81 ± 6%	89 ± 1%	–	–	O=C(O)C(=O)Cc1c[nH]c2ccccc12 [indole-3-pyruvic acid]	–	–	–	–	–	–	–
–	–	106 ± 4%	102 ± 5%	98±2%	–	116 ± 17%	97±3%	< 10%	< 10%	O=C(O)C(=O)CC(Cc1ccccc1)C(=O)O (racemic) [compound 19]	–	–	–	–	–	–	–

Further lines, the molecule ahead of its results:

SMILES	activity [%] (%-substrate conversion after 20 min incubation) (R140Q IDH2 [1]; [11])	activity [%] (%-substrate conversion after 20 min incubation) (R172K IDH2 [2]; [12])	activity [%] (%-substrate conversion after 20 min incubation) (R140Q IDH2 [3]; [13])	activity [%] (%-substrate conversion after 20 min incubation) (R172K IDH2 [4]; [14])	activity [%] (%-substrate conversion after 20 min incubation) (WT IDH1 [5]; [15])	activity [%] (%-substrate conversion after 20 min incubation) (R132H IDH1 [6]; [16])	activity [%] (%-substrate conversion after 20 min incubation) (R132H IDH1 [7]; [17])	activity [%] (%-substrate conversion after 20 min incubation) (WT IDH2 [8])	activity [%] (%-substrate conversion after 20 min incubation) (WT IDH1 [9])	activity [%] (%-substrate conversion after 20 min incubation) (WT IDH2 [10])	activity [%] (%-substrate conversion after 20 min incubation) (R140Q IDH2 [1])	activity [%] (%-substrate conversion after 20 min incubation) (R172K IDH2 [2])	activity [%] (%-substrate conversion after 20 min incubation) (R140Q IDH2 [3])	activity [%] (%-substrate conversion after 20 min incubation) (R172K IDH2 [4])	activity [%] (%-substrate conversion after 20 min incubation) (R132H IDH1 [6])	activity [%] (%-substrate conversion after 20 min incubation) (R132H IDH1 [7])	activity [%] (%-substrate conversion after 20 min incubation) (WT IDH1 [5])
O=C(O)CCCC(=O)C(=O)O [2-oxoadipic acid]	< 10%	< 10%	94 ± 8%	96 ± 18%	108 ± 8%	< 10%	115 ± 8%	–	–	–	–	–	–	–	–	–	–
O=C(O)CC(C(=O)O)C(O)C(=O)O (racemic) [DL-isocitric acid]	–	–	–	–	–	–	–	–	–	–	< 10%	< 10%	64 ± 3%	71 ± 5%	< 10%	78 ± 5%	–
O=C(O)/C=C(/CC(=O)O)C(=O)O [cis-aconitic acid]	–	–	–	–	–	–	–	–	–	–	< 10%	< 10%	119 ± 12%	99 ± 7%	< 10%	100 ± 2%	101 ± 2%
O=C(O)CC(=O)CC(=O)O [3-oxoglutaric acid]	< 10%	< 10%	109 ± 3%	100 ± 4%	103 ± 3%	< 10%	95 ± 2%	–	–	–	–	–	–	–	–	–	–
